Experimental data published in patent US20050101542A1, “Combination therapy for controlling appetites” (Regents of the University of California, priority 2002, published 2005).

Key:
[1] = Subchronic OEA administration in rats (7 days): food intake, body weight, water intake; type: in vivo, rat; conditions: 5 mg per kg i.p. daily for seven days
Description: (§1) Feeding experiments. Acute experiments. Food intake was measured in 24-h food-deprived rats (Navarro, et al., J. Neurochem., 67:1982-1991 (1996)), administering drugs 15 min before food presentation. Subchronic experiments. Ad libitum fed rats received vehicle injections for three days. On day four, the animals were divided in two equal groups and gave them daily injections of vehicle or OEA (5 mg per kg at 1900 h) for 7 consecutive days, while measuring body weight, food intake and water intake.
In this example, OEA was subchronically administered to rats.

[2] = Food intake in capsaicin-treated (sensory deafferented) rats, Example 2; type: in vivo, rat; conditions: OEA 10 mg per kg i.p.
Description: FAE were dissolved in dimethylsulphoxide (DMSO) and administered in 70% DMSO in sterile saline (acute treatments) Or 5% Tween 80/5% propylenglycol in sterile saline (subchronic treatments) (1 ml per kg, i.p.). Capsaicin was administered in 10% Tween 80/10% ethanol/80% saline; SR141716A, SR144528, CCK-8 and CP-93129 in 5% Tween 80/5% propylenglycol/90% saline (1 ml per kg, i.p.).

[3] = molecular target: T1, cannabinoid binding to rat brain membranes (Rattus norvegicus, UniProt P20272); assay: Displacement of cannabinoid binding to rat brain membranes; conditions: rat brain membranes in vitro
T1 construct: from tissue; host or cells: rat brain membranes

[4] = Plasma hormone levels by radioimmunoassay; type: in vivo, rat; conditions: 20 mg per kg i.p.
Description: Blood chemistry. Plasma β-hydroxybutyrate and glycerol were measured using commercial kits (Sigma, St. Louis, Mo.). Plasma prolactin, corticosterone and luteinizing hormone were quantified by radioimmunoassay (Navarro, et al., Neuroreport, 8:491-496 (1997)).

Astrocyte = assay: [14C]oleate oxidation to ketone bodies in astrocytes; type: cell-based, rat; conditions: 30 min incubation
Description: (§2) This example illustrates the effect of OEA on fat metabolism and methods for studying the same. Oleoylethanolamide (OEA) decreases body weight not only by suppressing appetite, but also by possibly enhancing body fat catabolism. The effects of OEA on fatty acid oxidation in major body-fat burning tissues (soleus muscle, liver, cultured cardiac myocytes and astrocytes) was examined. […] In addition, OEA induces a significant mobilization of triacylglycerol stores from primary white adipose tissue cells. Table 4 details the methods and effects of OEA on fatty acid oxidation in these cells. Structure-activity relationship experiments provide evidence that the effect of OEA on skeletal muscle fatty acid oxidation is specific (FIG. 8).

Soleus muscle = assay: [14C]oleate oxidation to CO2 in soleus muscle; type: cell-based, rat; conditions: 10 μM, 30 min incubation
Description: as §2

[5] = Food intake in vagotomized or capsaicin-treated rats, Example 3; type: in vivo, rat; conditions: rats; OEA 10, Wy-14643 40 mg kg^−1 i.p.
[6] = Acute food intake in 24-h food-deprived rats, i.p. dosing; type: in vivo, rat
Description: as §1
The effects of systemically administered OEA or an OEA-like compound or OEA-like modulator on food intake in rats can be assessed using a 24 h fast. […] To define the selectivity of this response, various OEA analogs were evaluated for their ability to produce hypophagia.

Cardiomyocyte = assay: [14C]oleate oxidation to CO2 in cardiomyocytes; type: cell-based, rat; conditions: 30 min incubation
Description: as §2

PPAR-α-regulated genes = assay: Real time quantitative PCR of gene expression in mouse intestine and liver; type: in vivo
Description: Tissues were stored in RnaLater™ (Ambion), extracted total RNA with TRIzol™ (Invitrogen) and quantified it with Ribogreen™ (Molecular Probes). cDNA was synthesized by using SuperscriptII RNase H-reverse transcriptase (Invitrogen).
Reverse transcription of total RNA (2 μg) was performed using Oligo(dT)12-18 primer (0.2 μg) for 50 min at 42° C. Real Time Quantitative (RTQ) PCR was conducted using an ABI PRISM 7700 sequence detection system (Applied Biosystems). Primer/probe sets were designed using the Primer Express™ software and gene sequences available from the Genebank™ database. Primers and fluorogenic probes were synthesized by TIB (Adelphia). The primer/probe sequences for the mouse genes were:
RNA levels were normalized by using glyceraldehyde 3-phosphate dehydrogenase (GAPDH) as an internal standard. mRNA levels were measured by generating six-point serial standard curves using mouse total RNA. Estimates of relative mRNA abundance (in arbitrary units) were made by using the CT value (Schmittgen et al., 2000). Relative quantifications of RNAs of interest were made by using the 2^ΔCT formula, in which ΔCT was calculated by subtracting the CT value for GAPDH from the CT value for the gene of interest. This formula was validated for each primer/probe set by using six-point serial standard curves.

[7] = Subchronic OEA in high-fat-fed obese wild-type and PPARα null mice; type: in vivo, mouse; conditions: 4 weeks; for hypercholesterolemia (serum cholesterol): 5 mg-kg^−1 once daily i.p.
Description: Subchronic experiments. Male wild-type and PPARα null mice were fed with a very high-fat diet (60 kcal % fat; D12492; Research Diets, NJ). […] The mice were divided into 4 groups (n=7-8 each), and treated them for 4 additional weeks with vehicle (saline/polyethylene glycol/Tween 80, 90/5/5; 1 ml-kg^−1) Or OEA (5 mg-kg^−1, once daily, i.p.). In a separate experiment, obese Zucker rats were treated for 2 weeks with vehicle or OEA (5 mg-kg^−1, once daily, i.p.), while maintaining them on a regular rodent chow (RMH 2500, Prolab). Food intake and body weight were measured daily. At the end of the experiments, the animals were fasted overnight, and tissues and blood samples collected for biochemical analyses.
Lipids were extracted from mouse liver and epidydimal adipose tissue (Bligh and Dyer, 1959) and measured triglycerides with a commercial kit (Sigma). Serum lipids and glucose were measured with an automated Synchron LX® system (Beckman-Coulter).

[8] = Circulating OEA levels after OEA administration (HPLC/MS); type: in vivo; conditions: rat, plasma, ip; 1 hr after 5 mg per kg i.p., rats; baseline 10.1±1.1
Description: HPLC/MS analyses. Plasma was prepared from blood obtained by cardiac puncture (Giuffrida, et al., Anal. Biochem., 280:87-93 (2000)) and CSF was collected from the cisterna magna using a 27G ½ needle (Precisionglide, USA). FAEs and NAPE were extracted from tissues with methanol/chloroform and fractionated by column chromatography (Giuffrida, et al., “Lipid Second Messengers” (ed. Laychock, S. G. & Rubin, R. P.) 113-133 (CRC Press LLC, Boca Raton, Fla., 1998)). FAEs were quantified by HPLC/MS, using an isotope dilution method (Giuffrida, et al., Anal. Biochem., 280:87-93 (2000)). Individual NAPE species were identified and quantified by HPLC/MS, using an external standard method (Calignano, et al., Nature, 408:96-101 (2000)).
OEA elicits hypophagia at physiologically relevant doses. […] Thus, the concentrations reached by OEA in blood during starvation can be sufficient to elicit notable behavioral responses.

[9] = obese wild-type mice, 5 mg-kg^−1 i.p. daily

T1 sequence (P20272 whole entry): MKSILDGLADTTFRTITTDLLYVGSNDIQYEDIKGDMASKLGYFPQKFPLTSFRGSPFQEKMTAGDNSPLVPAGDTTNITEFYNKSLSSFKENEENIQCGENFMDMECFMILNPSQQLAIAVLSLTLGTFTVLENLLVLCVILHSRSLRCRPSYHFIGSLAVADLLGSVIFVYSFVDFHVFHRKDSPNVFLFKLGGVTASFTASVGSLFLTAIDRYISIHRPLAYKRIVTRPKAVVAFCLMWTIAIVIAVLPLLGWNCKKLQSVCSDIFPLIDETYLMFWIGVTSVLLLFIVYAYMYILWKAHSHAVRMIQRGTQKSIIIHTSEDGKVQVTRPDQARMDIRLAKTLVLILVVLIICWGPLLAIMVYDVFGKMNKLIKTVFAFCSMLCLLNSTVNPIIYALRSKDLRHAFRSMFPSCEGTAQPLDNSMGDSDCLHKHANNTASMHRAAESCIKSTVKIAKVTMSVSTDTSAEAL

**Q.** What does the source list for `CCCCCCCC/C=C\CCCCCCCC(=O)NCCO` [OEA, Z-2-hydroxyethyl octadec-9-enamide]?
**A.** cumulative food intake [1]: small, but significant decrease; water intake [1]: did not affect; weight gain [1]: profound inhibition of weight gain; feeding response in capsaicin-treated rats [2]: failed to respond; displacement of cannabinoid binding [3]: did not displace; activity of the hypothalamus-pituitary-adrenal (HPA) axis [4]: did not alter; Stimulatory effect of 10 μM OEA on [14C]oleate oxidation to ketone bodies (Astrocyte): 2 ± 6 (n = 3) %; Stimulatory effect of 10 μM OEA on [14C]oleate oxidation to CO2 (Soleus muscle): 36 ± 10 (n = 4) %; food intake after vagotomy or capsaicin treatment [5]: no effect; food intake (hypophagia) ([6]; 24-h food-deprived rats, i.p.): dose- and time-dependent suppression of food intake; water intake ([6]; acute, 5 or 20 mg per kg): did not alter; half-maximally effective dose for hypophagia ([6]; i.p., rats): 5 mg per kg; Stimulatory effect of 10 μM OEA on [14C]oleate oxidation to CO2 (Cardiomyocyte): 37 ± 9 (n = 3) %; expression of PPAR-α-regulated genes (PPAR-α-regulated genes; ileum): not and fail to induce expression; expression of PPAR-α-regulated genes (PPAR-α, FAT/CD36, FATP1) (PPAR-α-regulated genes; jejunum of wild-type mice, OEA or oleic acid 10, Wy-14643 30 mg kg^−1 i.p.): increased the expression; expression of genes not under the control of PPAR-α (I-FABP, PPAR-β/δ, PPAR-γ) (PPAR-α-regulated genes; jejunum, wild-type or PPAR-α-null mice): not affected; gene expression in mice deficient in PPAR-α (PPAR-α-regulated genes; jejunum, OEA 10, Wy-14643 30 mg kg^−1 i.p.): did not stimulate gene expression; transcription of PPAR-α-regulated genes (PPAR-α-regulated genes; liver of wild-type mice): initiated transcription; hypercholesterolemia (serum cholesterol) ([7]; high fat-fed PPARα-null mice): ineffective; hypercholesterolemia (serum cholesterol) ([7]; high fat-fed wild-type mice): partially corrected; cumulative food intake and body-weight gain ([7]; obese PPARα deficient mice, 5 mg-kg^−1 i.p. daily): no such effect; body-weight gain [7, 9]: suppressed; cumulative food intake (normalized for body mass) [7, 9]: significantly reduced; concentration at 1 hr [8]: 16.1 ± 2.6 nM
